# Measurements as given in US20250129054A1 (Terran Biosciences Inc., priority 2022, published 2025).
# Assay: Serial tail vein bleed PK study in SD rats: methylone measured in plasma after IV or oral methylone or oral methylone prodrugs
# Assay type: in vivo, Sprague Dawley rats
# Conditions: for Tlast: analyte methylone in plasma, oral methylone THP 1-ethyl ester prodrug 10 mg/kg, male SD rats; for Plasma Concentrations of metabolite methylone: 10 mg/kg, rat
# Method: A pharmacokinetic (PK) study was performed in three male Sprague-Dawley (SD) rats following intravenous (IV) and oral (PO) administration of methylone at 1 mg/kg (IV) and 10 mg/kg (PO) respectively, or test compounds (prodrugs of methylone) at 10 mg/kg (PO). Parent compound (methylone) was measured in plasma.
# Samples were sent for method optimization and measurement of parent compound (methylone) via unique calibration lines and following acceptance QC's. Dose formulation concentrations were also measured, and PK parameters were determined (Cmax (ng/mL), Tmax (hr), Cl (ml/min/kg), Vdss (L/kg), t½(hr), AUC0-t (ng/mL*hr), AUC0-inf (ng/mL*hr), MIRT (hr), Bioavailability ([…]) where warranted) using WinNon Lin software. Data (including bioanalytical results and assay performance) were reported in a tabulated format.
# Formulation for PO Administration: For PO dosing, the prodrug was formulated in 10% DMSO/20% PEG400/70% water to a concentration of 2 mg free metabolite material/mL. This provided a dose of 10 mg free metabolite/kg when the prodrug was administered PO in 5 mL/kg dosing volumes.
# Formulation for IV administration: For IV dosing, rac-methylone was formulated as solution in saline to a concentration of 0.5 mg free metabolite material/mL. This provided a dose of 1 mg free metabolite/kg when administered IV in 2 mL/kg dosing volumes.
# The pharmacokinetic properties of the synthesized methylone prodrugs after oral administration in a rat model were assessed. The concentration of methylone was measured in each rat at various sampling timepoints after IV or oral administration of rac-methylone or the synthesized methylone prodrugs to rats.
# Dose formulations were made at equivalent concentrations of active compound (methylone) adjusted for molecular weight of the compounds. The synthesized methylone prodrugs or analogs were dosed at 10 mg/kg oral (PO) nominal dose. Nominal doses were used in PK parameter determinations. The parent compound (methylone) was dosed at 1 mg/kg intravenous (IV) and 10 mg/kg (PO).
# [1] = 0.500 h after oral dosing of the prodrug, individual animals
# [2] = 0.500 h after oral dosing of the prodrug, mean
# [3] = 1.00 h after oral dosing of the prodrug, individual animals
# [4] = 1.00 h after oral dosing of the prodrug, mean
# [5] = 2.00 h after oral dosing of the prodrug, individual animals
# [6] = 2.00 h after oral dosing of the prodrug, mean
# [7] = 4.00 h after oral dosing of the prodrug, individual animals
# [8] = 4.00 h after oral dosing of the prodrug, mean
# [9] = 7.00 h after oral dosing of the prodrug, individual animals
# [10] = 7.00 h after oral dosing of the prodrug, mean
# [11] = 24.0 h after oral dosing of the prodrug, individual animals
# [12] = 24.0 h after oral dosing of the prodrug, mean
Compound,Tlast (individual animal) [h],Tlast (mean) [h],Plasma Concentrations of metabolite methylone [1],Plasma Concentrations of metabolite methylone [2],Plasma Concentrations of metabolite methylone [3],Plasma Concentrations of metabolite methylone [4],Plasma Concentrations of metabolite methylone [5],Plasma Concentrations of metabolite methylone [6],Plasma Concentrations of metabolite methylone [7],Plasma Concentrations of metabolite methylone [8],Plasma Concentrations of metabolite methylone [9],Plasma Concentrations of metabolite methylone [10],Plasma Concentrations of metabolite methylone [11],Plasma Concentrations of metabolite methylone [12]
"1-[[2-(1,3-Benzodioxol-5-yl)-1-methyl-2-oxo-ethyl]-methyl-carbamoyl]oxyethyl tetrahydropyran-4-carboxylate [Compound 6E]",7.00,7.00,–,–,–,–,–,–,–,–,–,–,–,–
"CCOC(=O)N(C)C(C)C(=O)c1ccc2c(c1)OCO2 (centres unmarked) [Compound 1A, Ethyl N-[2-(1,3-benzodioxol-5-yl)-1-methyl-2-oxo-ethyl]-N-methyl-carbamate]",–,–,BLQ (Below Lower Limit of Quantification (0.5 ng/mL)),BLQ (Below Lower Limit of Quantification (0.5 ng/mL)),BLQ (Below Lower Limit of Quantification (0.5 ng/mL)),BLQ (Below Lower Limit of Quantification (0.5 ng/mL)),BLQ (Below Lower Limit of Quantification (0.5 ng/mL)),BLQ (Below Lower Limit of Quantification (0.5 ng/mL)),BLQ (Below Lower Limit of Quantification (0.5 ng/mL)),BLQ (Below Lower Limit of Quantification (0.5 ng/mL)),BLQ (Below Lower Limit of Quantification (0.5 ng/mL)),BLQ (Below Lower Limit of Quantification (0.5 ng/mL)),BLQ (Below Lower Limit of Quantification (0.5 ng/mL)),BLQ (Below Lower Limit of Quantification (0.5 ng/mL))
"CC(C)OC(=O)N(C)C(C)C(=O)c1ccc2c(c1)OCO2 (centres unmarked) [Compound 1B, iso-Propyl N-[2-(1,3-benzodioxol-5-yl)-1-methyl-2-oxo-ethyl]-N-methyl-carbamate]",–,–,BLQ (Below Lower Limit of Quantification (0.5 ng/mL)),BLQ (Below Lower Limit of Quantification (0.5 ng/mL)),BLQ (Below Lower Limit of Quantification (0.5 ng/mL)),BLQ (Below Lower Limit of Quantification (0.5 ng/mL)),BLQ (Below Lower Limit of Quantification (0.5 ng/mL)),BLQ (Below Lower Limit of Quantification (0.5 ng/mL)),BLQ (Below Lower Limit of Quantification (0.5 ng/mL)),BLQ (Below Lower Limit of Quantification (0.5 ng/mL)),BLQ (Below Lower Limit of Quantification (0.5 ng/mL)),BLQ (Below Lower Limit of Quantification (0.5 ng/mL)),BLQ (Below Lower Limit of Quantification (0.5 ng/mL)),BLQ (Below Lower Limit of Quantification (0.5 ng/mL))
"CC(C)COC(=O)N(C)C(C)C(=O)c1ccc2c(c1)OCO2 (centres unmarked) [Compound 1D, iso-Butyl N-[2-(1,3-benzodioxol-5-yl)-1-methyl-2-oxo-ethyl]-N-methyl-carbamate]",–,–,BLQ (Below Lower Limit of Quantification (0.5 ng/mL)),BLQ (Below Lower Limit of Quantification (0.5 ng/mL)),BLQ (Below Lower Limit of Quantification (0.5 ng/mL)),BLQ (Below Lower Limit of Quantification (0.5 ng/mL)),BLQ (Below Lower Limit of Quantification (0.5 ng/mL)),BLQ (Below Lower Limit of Quantification (0.5 ng/mL)),BLQ (Below Lower Limit of Quantification (0.5 ng/mL)),BLQ (Below Lower Limit of Quantification (0.5 ng/mL)),BLQ (Below Lower Limit of Quantification (0.5 ng/mL)),BLQ (Below Lower Limit of Quantification (0.5 ng/mL)),BLQ (Below Lower Limit of Quantification (0.5 ng/mL)),BLQ (Below Lower Limit of Quantification (0.5 ng/mL))
"CC(C(=O)c1ccc2c(c1)OCO2)N(C)C(=O)OC(C)(C)C (centres unmarked) [Compound 2A, tert-Butyl N-[2-(1,3-benzodioxol-5-yl)-1-methyl-2-oxo-ethyl]-N-methyl-carbamate]",–,–,BLQ (Below Lower Limit of Quantification (0.5 ng/mL)),BLQ (Below Lower Limit of Quantification (0.5 ng/mL)),BLQ (Below Lower Limit of Quantification (0.5 ng/mL)),BLQ (Below Lower Limit of Quantification (0.5 ng/mL)),BLQ (Below Lower Limit of Quantification (0.5 ng/mL)),BLQ (Below Lower Limit of Quantification (0.5 ng/mL)),BLQ (Below Lower Limit of Quantification (0.5 ng/mL)),BLQ (Below Lower Limit of Quantification (0.5 ng/mL)),BLQ (Below Lower Limit of Quantification (0.5 ng/mL)),BLQ (Below Lower Limit of Quantification (0.5 ng/mL)),BLQ (Below Lower Limit of Quantification (0.5 ng/mL)),BLQ (Below Lower Limit of Quantification (0.5 ng/mL))
"CC(C(=O)c1ccc2c(c1)OCO2)N(C)C(=O)C(F)(F)F (centres unmarked) [Compound 2B, N-[2-(1,3-Benzodioxol-5-yl)-1-methyl-2-oxo-ethyl]-2,2,2-trifluoro-N-methyl-acetamide]",–,–,BLQ (Below Lower Limit of Quantification (0.5 ng/mL)),BLQ (Below Lower Limit of Quantification (0.5 ng/mL)),BLQ (Below Lower Limit of Quantification (0.5 ng/mL)),BLQ (Below Lower Limit of Quantification (0.5 ng/mL)),BLQ (Below Lower Limit of Quantification (0.5 ng/mL)),BLQ (Below Lower Limit of Quantification (0.5 ng/mL)),BLQ (Below Lower Limit of Quantification (0.5 ng/mL)),BLQ (Below Lower Limit of Quantification (0.5 ng/mL)),BLQ (Below Lower Limit of Quantification (0.5 ng/mL)),BLQ (Below Lower Limit of Quantification (0.5 ng/mL)),BLQ (Below Lower Limit of Quantification (0.5 ng/mL)),BLQ (Below Lower Limit of Quantification (0.5 ng/mL))
"CC(C(=O)c1ccc2c(c1)OCO2)N(C)C(=O)CN(C)C (centres unmarked) [Compound 3B, N-[2-(1,3-Benzodioxol-5-yl)-1-methyl-2-oxo-ethyl]-2-(dimethylamino)-N-methyl-acetamide]",–,–,BLQ (Below Lower Limit of Quantification (0.5 ng/mL)),BLQ (Below Lower Limit of Quantification (0.5 ng/mL)),BLQ (Below Lower Limit of Quantification (0.5 ng/mL)),BLQ (Below Lower Limit of Quantification (0.5 ng/mL)),BLQ (Below Lower Limit of Quantification (0.5 ng/mL)),BLQ (Below Lower Limit of Quantification (0.5 ng/mL)),BLQ (Below Lower Limit of Quantification (0.5 ng/mL)),BLQ (Below Lower Limit of Quantification (0.5 ng/mL)),BLQ (Below Lower Limit of Quantification (0.5 ng/mL)),BLQ (Below Lower Limit of Quantification (0.5 ng/mL)),BLQ (Below Lower Limit of Quantification (0.5 ng/mL)),BLQ (Below Lower Limit of Quantification (0.5 ng/mL))
